Reference: the NIST ThermoML archive (doi:10.1021/je020131a)
Numbers after ± are expanded uncertainties.

Settings: Liquid; for viscosity: 101.3 kPa, Falling or rolling sphere viscometry; for mass density: 101.33 kPa, Vibrating tube method

Row | viscosity (293.15 K) [mPa·s] | viscosity (298.15 K) [mPa·s] | mass density (298.15 K) [kg/m3] | viscosity (303.15 K) [mPa·s] | viscosity (313.15 K) [mPa·s] | Structure (SMILES)
1 | 0.313 ± 0.02 | 0.301 ± 0.02 | 654.8 ± 0.3 | 0.282 ± 0.02 | 0.258 ± 0.02 | CCCCCC [hexane]
2 | 0.545 ± 0.021 | 0.513 ± 0.021 | 698.5 ± 0.4 | 0.484 ± 0.02 | 0.434 ± 0.02 | CCCCCCCC [octane]
